# Experimental data from patent publication US20080103209A1, “Compounds And Methods For Treating Non-Inflammatory Pain Using Ppar Alpha Agonists” (The Regents of The University of California, priority 2004, published 2008).
# Test system: PKAα catalytic subunit
# Test: Immunoblot of lumbar spinal cord extracts, PKAα catalytic subunit
# Type: in vivo, mouse
# Conditions: neuropathic mice, PEA 30 mg-kg^−1 s.c. once daily for two weeks; change not statistically significant
# Protocol: Opiate analgesics have a high liability to produce tolerance, a progressive loss of pharmacological activity caused by repeated drug administrations (Waldhoer et al., Annu Rev Biochem, 73, 953 (2004)). To assess whether tolerance develops to the antihyperalgesic effects of PPARα agonists, PEA (30 mg-kg^−1, s.c.) was administered once a day for 14 consecutive days from the time of surgery, measuring mechanical and thermal hyperalgesia at day 7 and 14.
# Immunoblot analysis. Lumbar spinal cord tissue was weighed, homogenized in Tris-HCl (20 mM, pH 7.5), 10 mM NaF, 150 mM NaCl, 1% Nonidet P-40, 1 mM PMSF, 1 mM Na3VO4, leupeptin and trypsin inhibitor (10 μg/ml). After 1 h, the tissue lysates were subjected to centrifugation ay 100,000×g for 15 min at 4° C. Protein concentrations were estimated using a Bio-Rad protein assay and bovine serum albumin as a standard. Equal amounts of protein (20 μg) were dissolved in Laemmli sample buffer, boiled for 5 min, subjected to sodium dodecyl sulphate-polyacrylamide gel electrophoresis (8% polyacrylamide) and transferred onto nitrocellulose membranes at 240 mA for 40 min at room temperature. […] The films were scanned and densitometrically analysed with a model GS-700 imaging densitometer.
smiles,measurement,value
"CCCCCCCCCCCCCCCC(=O)NCCO [PEA, palmitoylethanolamide]",spinal tissue levels of PKA α catalytic subunit,slightly decreased
